Laboratory results published in patent US20260078135A1, “POLYCYCLIC QUINAZOLINES FOR INHIBITION OF ERBB2” (Enliven Inc., priority 2022, published 2026).

Experiments:
[1] = molecular target: T1, phosphorylated EGFR (pEGFR) (Homo sapiens, UniProt P00533); assay: Detection of phosphorylated EGFR (pEGFR) by AlphaLISA in EGF-stimulated A431 cells; format: cell-based; details: A431 cells (10% FBS), 4 hours incubation, EGF 30 ng/mL for 10 minutes
T1 construct: performed to measure phosphorylated EGFR levels using A431 cells (10% FBS); endogenous in cells; host or cells: A431
T1 sequence (P00533 25-1210): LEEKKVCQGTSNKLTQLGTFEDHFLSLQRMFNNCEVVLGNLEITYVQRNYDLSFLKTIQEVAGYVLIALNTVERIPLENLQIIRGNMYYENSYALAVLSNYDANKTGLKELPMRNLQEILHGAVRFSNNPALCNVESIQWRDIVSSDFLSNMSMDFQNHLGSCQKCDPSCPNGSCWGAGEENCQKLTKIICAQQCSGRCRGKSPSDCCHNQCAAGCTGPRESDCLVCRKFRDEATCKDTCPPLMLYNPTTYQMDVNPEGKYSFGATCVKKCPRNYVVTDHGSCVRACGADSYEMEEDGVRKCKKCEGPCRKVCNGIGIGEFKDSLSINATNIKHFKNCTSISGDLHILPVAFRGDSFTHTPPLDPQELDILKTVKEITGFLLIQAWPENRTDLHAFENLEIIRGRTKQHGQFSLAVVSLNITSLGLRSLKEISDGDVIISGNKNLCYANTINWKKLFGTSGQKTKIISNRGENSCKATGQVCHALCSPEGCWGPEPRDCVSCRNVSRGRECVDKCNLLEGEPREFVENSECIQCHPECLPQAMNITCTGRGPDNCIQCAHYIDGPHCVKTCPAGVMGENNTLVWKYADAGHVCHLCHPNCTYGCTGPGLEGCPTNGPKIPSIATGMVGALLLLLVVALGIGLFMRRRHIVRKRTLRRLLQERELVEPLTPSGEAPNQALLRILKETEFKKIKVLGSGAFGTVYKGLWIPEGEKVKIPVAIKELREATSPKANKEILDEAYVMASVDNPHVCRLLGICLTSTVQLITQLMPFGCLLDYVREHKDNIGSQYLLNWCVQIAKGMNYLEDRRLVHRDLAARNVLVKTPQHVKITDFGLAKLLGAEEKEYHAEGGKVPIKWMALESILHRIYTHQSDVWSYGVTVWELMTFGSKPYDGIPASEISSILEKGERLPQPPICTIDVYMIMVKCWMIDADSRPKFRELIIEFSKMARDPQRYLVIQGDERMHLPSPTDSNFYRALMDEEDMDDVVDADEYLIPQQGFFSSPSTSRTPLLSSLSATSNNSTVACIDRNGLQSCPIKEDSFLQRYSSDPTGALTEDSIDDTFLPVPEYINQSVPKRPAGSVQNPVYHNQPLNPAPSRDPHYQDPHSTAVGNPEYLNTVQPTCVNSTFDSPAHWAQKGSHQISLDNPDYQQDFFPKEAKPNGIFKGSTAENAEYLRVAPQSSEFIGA
Procedure: Enzyme-linked immunosorbent assays (ELISA) were performed to measure phosphorylated EGFR levels using A431 cells (10% FBS). A431 (1.0*10^4 cells/40 μl/well) cells were seeded in 384 well. Compounds were dissolved in DMSO, serially diluted in DMSO and then were added, mixed, and incubated for 4 hours at 37° C., 5% C02. Following the 4-hours incubation, cells were stimulated for 10 minutes with EGF (Invitrogen, cat #PHG0311) at a final concentration of 30 ng/mL in the incubator. The media was aspirated and cells were lysed in 10 μL lysis buffer with protease and phosphatase inhibitors (PerkinElmer, cat #ALSU-PEGFR-A50K). The plates were placed on a shaker for 5 μminutes and then incubated for 30 min at 4° C. for complete lysis. The lysate was transferred to an Optiplate (Perkin Elmer, cat #6007290).
Acceptor mix (PerkinElmer, cat #ALSU-PEGFR-A50K) was prepared just before use and 5 μL was dispensed to all the wells, followed by a 1.5-2 h incubation at room temperature in dark. The donor mix (PerkinElmer, cat #ALSU-PEGFR-A50K) was prepared under low light conditions prior to use and 5 μl of donor mix was added to all the wells under subdued lighting or green filters. The plates were placed on a shaker for 5 μmin, sealed, and incubated overnight at room temperature in dark. Plates were read on the Envision (PerkinElmer) using standard AlphaLISA settings.
The percentage of inhibition on EGFR phosphorylation was calculated following equation: % Inhibition=100×(LumHC−LumSample)/(LumHC−LumLC). The low and high controls (LC/HC) are generated from lysate from wells with cells treated with DMSO or […] Staurosporine (BioAustralis, cat #BIA-S1086), […]. IC50 values were calculated by fitting the Curve using XLfit (v5.3.1.3), equation 201: Y=Bottom+(Top−Bottom)/(1+10^((Log IC50−X)*HillSlope)).

[2] = molecular target: T2, phosphorylated ERBB2 (pERBB2) (Homo sapiens, UniProt P04626); assay: Detection of phosphorylated ERBB2 (pERBB2) by ELISA in BT-474 cells; format: cell-based; details: four hour incubation
T2 construct: endogenous in cells; host or cells: BT-474
T2 sequence (P04626 23-1255): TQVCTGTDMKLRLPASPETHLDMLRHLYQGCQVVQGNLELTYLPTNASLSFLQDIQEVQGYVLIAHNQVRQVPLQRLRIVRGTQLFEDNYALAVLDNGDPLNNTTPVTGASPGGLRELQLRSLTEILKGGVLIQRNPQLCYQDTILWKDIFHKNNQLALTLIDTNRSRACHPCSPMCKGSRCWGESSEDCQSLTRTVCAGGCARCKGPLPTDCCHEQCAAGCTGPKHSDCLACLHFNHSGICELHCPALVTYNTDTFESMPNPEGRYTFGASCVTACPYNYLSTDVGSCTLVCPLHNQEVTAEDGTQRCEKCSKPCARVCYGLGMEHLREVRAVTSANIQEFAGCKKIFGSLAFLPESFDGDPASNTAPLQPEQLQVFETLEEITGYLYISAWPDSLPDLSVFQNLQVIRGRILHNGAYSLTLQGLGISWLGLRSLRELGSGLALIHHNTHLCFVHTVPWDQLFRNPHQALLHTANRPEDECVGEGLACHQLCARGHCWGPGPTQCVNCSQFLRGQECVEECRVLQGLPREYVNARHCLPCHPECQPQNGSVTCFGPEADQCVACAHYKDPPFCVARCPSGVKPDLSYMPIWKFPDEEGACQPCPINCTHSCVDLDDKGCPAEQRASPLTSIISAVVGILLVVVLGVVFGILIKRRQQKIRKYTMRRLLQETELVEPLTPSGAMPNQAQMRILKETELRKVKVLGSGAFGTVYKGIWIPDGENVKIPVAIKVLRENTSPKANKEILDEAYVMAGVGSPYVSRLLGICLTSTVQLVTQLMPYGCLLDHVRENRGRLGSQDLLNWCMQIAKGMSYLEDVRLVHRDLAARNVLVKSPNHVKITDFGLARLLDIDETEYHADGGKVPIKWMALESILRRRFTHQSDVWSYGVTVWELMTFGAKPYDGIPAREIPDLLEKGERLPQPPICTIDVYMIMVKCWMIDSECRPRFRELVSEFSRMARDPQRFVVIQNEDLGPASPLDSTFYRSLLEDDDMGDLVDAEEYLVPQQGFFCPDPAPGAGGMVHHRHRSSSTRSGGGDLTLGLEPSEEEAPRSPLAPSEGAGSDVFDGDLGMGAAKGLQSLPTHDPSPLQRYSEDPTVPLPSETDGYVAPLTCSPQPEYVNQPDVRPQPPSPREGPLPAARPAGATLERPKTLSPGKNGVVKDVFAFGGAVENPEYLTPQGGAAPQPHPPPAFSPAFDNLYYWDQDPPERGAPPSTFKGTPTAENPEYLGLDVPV
Procedure: BT-474 cells were seeded into a 96-well at 2.0*10^4 cells/100 μl/well. Compounds were dissolved and serially diluted in DMSO. The compounds were then were added, mixed, and incubated for four hours at 37° C., 5% CO2. Compounds were added using four-fold dilutions at final concentrations ranging from 10 μM to 0.01 nM. Following the four hour incubation with compounds, cell lysates were prepared. Plates were centrifuged for 5 μmin at 3000 RPM, and supernatant was removed from each well. Cells were washed 3 times by resuspension in 150 μl PBS, followed by centrifugation and removal of the supernatant, as above. 100 μl of cell lysis buffer (Boston BioProducts, cat #BP-115D) supplied with 1× complete ULTRA cocktail inhibitor (Thermo ScientificTM, cat #78443) was then added to the washed cells. Cells were incubated with lysis buffer for 1 hour at 4° C., and then stored at -80° C. Enzyme-linked immunosorbent assays (ELISA) were performed to measure phosphorylated ERBB2 levels. […] The next day, plates were washed with PBS+0.05% Tween20 (PBST). 150 μl of 5% BSA blocking solution was added for 1 hour at room temperature, with shaking. Plates were washed with PBST. Cell lysates were thawed and 100 μl of lysate was added to the ELISA plate. The plates were incubated for 2 hours at room temperature, with shaking. ELISA plates were then washed with PBST and 100 μl of an HRP-labeled detection antibody that binds phosphorylated tyrosine (R&D Systems, cat #841913) was added to each well. Plates were incubated for 1 hour at room temperature, with shaking. Plates were then washed with PBST, and 100 μl TMB substrate solution (R&D Systems, cat #DY999) was added. Plate were incubated in the dark for 20 minutes at room temperature. 50 μl of Stop solution (R&D Systems, cat #DY994) (50 μl) was added to each well and mixed. Optical density at 450 nm was read on an EnSpire plate reader (Perkin Elmer). The remaining kinase activity by calculated using the following formula: % Relative activity=100×([…]). The low and high control values (“LC” and “HC”) were generated from lysate from wells without cells or with cells treated with 0.1% DMSO, respectively.

Row | IC50 [1] [nM] | IC50 [2] [nM] | SMILES
1 | > 10000 | 146 | Cc1cc(Nc2ncnc3ccc4c(c23)OC[C@@H]2CN(C)CCN42)ccc1Oc1ccc2c(c1)ncn2C [Compound 48, (S)-8-methyl-N-(3-methyl-4-((1-methyl-1H-benzo[d]imidazol-5-yl)oxy)phenyl)-6,6a,7,8,9,10-hexahydropyrazino[1′,2′:4,5][1,4]oxazino[2,3-f]quinazolin-4-amine]
2 | > 10000 | 417 | Cc1cc(Nc2ncnc3ccc4c(c23)OC[C@@H]2CN4CCO2)ccc1Oc1ccn2ncnc2c1 [Compound 72, (3S)—N-(4-([1,2,4]triazolo[1,5-a]pyridin-7-yloxy)-3-methylphenyl)-2,3,5,6-tetrahydro-3,7-methano[1,4,7]dioxazonino[5,6-f]quinazolin-13-amine]
3 | > 10000 | 82.1 | Cc1cc(Nc2ncnc3ccc4c(c23)OC[C@@H]2CN4CCN2C)ccc1Oc1ccc2c(c1)ncn2C [Compound 54, (3S)-4-methyl-N-(3-methyl-4-((1-methyl-1H-benzo[d]imidazol-5-yl)oxy)phenyl)-3,4,5,6-tetrahydro-2H-3,7-methano[1,4,7]oxadiazonino[2,3-f]quinazolin-13-amine]
4 | > 10000 | 21.9 | Cc1cc(Nc2ncnc3cc4c(cc23)N2CCN(C)C[C@H]2CO4)ccc1Oc1ccn2ncnc2c1 [Compound 58, (S)—N-(4-([1,2,4]triazolo[1,5-a]pyridin-7-yloxy)-3-methylphenyl)-3-methyl-1,2,3,4,4a,5-hexahydropyrazino[1′,2′:4,5][1,4]oxazino[3,2-g]quinazolin-11-amine]
5 | > 10000 | 38.5 | Cc1cc(Nc2ncnc3cc4c(cc23)N2CCN(C)C[C@H]2CO4)ccc1Oc1ccc2c(c1)ncn2C [Compound 62, (S)-3-methyl-N-(3-methyl-4-((1-methyl-1H-benzo[d]imidazol-5-yl)oxy)phenyl)-1,2,3,4,4a,5-hexahydropyrazino[1′,2′:4,5][1,4]oxazino[3,2-g]quinazolin-11-amine]
6 | > 10000 | 74.7 | COC(=O)N1CCN2c3ccc4ncnc(Nc5ccc(Oc6ccn7ncnc7c6)c(C)c5)c4c3OC[C@H]2C1 [Compound 110, methyl (R)-4-((4-([1,2,4]triazolo[1,5-a]pyridin-7-yloxy)-3-methylphenyl)amino)-6a,7,9,10-tetrahydropyrazino[1′,2′:4,5][1,4]oxazino[2,3-f]quinazoline-8(6H)-carboxylate]
7 | > 10000 | 127 | Cc1cc(Nc2ncnc3ccc4c(c23)OC[C@H]2CN4CCN2C)ccc1Oc1ccc2c(c1)ncn2C [Compound 56, (3R)-4-methyl-N-(3-methyl-4-((1-methyl-1H-benzo[d]imidazol-5-yl)oxy)phenyl)-3,4,5,6-tetrahydro-2H-3,7-methano[1,4,7]oxadiazonino[2,3-f]quinazolin-13-amine]
8 | > 10000 | 98.1 | Cc1c(Oc2ccn3ncnc3c2)ccc(Nc2ncnc3cc4c(nc23)N2CCN(C)C[C@H]2CO4)c1F [Compound 74, (S)—N-(4-([1,2,4]triazolo[1,5-a]pyridin-7-yloxy)-2-fluoro-3-methylphenyl)-3-methyl-1,2,3,4,4a,5-hexahydropyrazino[1,2-d]pyrimido[4′,5′:5,6]pyrido[3,2-b][1,4]oxazin-11-amine]
9 | > 10000 | 118 | Cc1cc(Nc2ncnc3cc4c(cc23)N2CCNC[C@H]2CO4)ccc1Oc1ccc2c(c1)ncn2C [Compound 61, (S)—N-(3-methyl-4-((1-methyl-1H-benzo[d]imidazol-5-yl)oxy)phenyl)-1,2,3,4,4a,5-hexahydropyrazino[1′,2′:4,5][1,4]oxazino[3,2-g]quinazolin-11-amine]
10 | > 10000 | 108 | Cc1cc(Nc2ncnc3ccc4c(c23)OC[C@H]2CN4CCN2)ccc1Oc1ccc2c(c1)ncn2C [Compound 55, (3R)—N-(3-methyl-4-((1-methyl-1H-benzo[d]imidazol-5-yl)oxy)phenyl)-3,4,5,6-tetrahydro-2H-3,7-methano[1,4,7]oxadiazonino[2,3-f]quinazolin-13-amine]
11 | > 10000 | 99.8 | Cc1cc(Nc2ncnc3cc4c(nc23)N2CCC[C@H]2CO4)ccc1Oc1ccn2ncnc2c1 [Compound 69, (S)—N-(4-([1,2,4]triazolo[1,5-a]pyridin-7-yloxy)-3-methylphenyl)-2,3,3a,4-tetrahydro-1H-pyrimido[4′,5′:5,6]pyrido[3,2-b]pyrrolo[1,2-d][1,4]oxazin-10-amine]
12 | > 10000 | 46.4 | Cc1cc(Nc2ncnc3cc4c(nc23)N2CCOC[C@H]2CO4)ccc1Oc1ccn2ncnc2c1 [Compound 67, (S)—N-(4-([1,2,4]triazolo[1,5-a]pyridin-7-yloxy)-3-methylphenyl)-1,2,4a,5-tetrahydro-4H-[1,4]oxazino[4,3-d]pyrimido[4′,5′:5,6]pyrido[3,2-b][1,4]oxazin-11-amine]
13 | > 10000 | 55.5 | Cc1cc(Nc2ncnc3cc4c(nc23)N2CCCC[C@H]2CO4)ccc1Oc1ccn2ncnc2c1 [Compound 68, (S)—N-(4-([1,2,4]triazolo[1,5-a]pyridin-7-yloxy)-3-methylphenyl)-1,2,3,4,4a,5-hexahydropyrido[1,2-d]pyrimido[4′,5′:5,6]pyrido[3,2-b][1,4]oxazin-11-amine]
14 | > 10000 | 185 | Cc1cc(Nc2ncnc3cc4c(nc23)N2CC[C@H]2CO4)ccc1Oc1ccn2ncnc2c1 [Compound 70, (S)—N-(4-([1,2,4]triazolo[1,5-a]pyridin-7-yloxy)-3-methylphenyl)-1,2,2a,3-tetrahydroazeto[1,2-d]pyrimido[4′,5′:5,6]pyrido[3,2-b][1,4]oxazin-9-amine]
15 | > 10000 | 225 | Cc1cc(Nc2ncnc3cc4c(c(F)c23)N2CCOC[C@H]2CO4)ccc1Oc1ccn2ncnc2c1 [Compound 105, (S)—N-(4-([1,2,4]triazolo[1,5-a]pyridin-7-yloxy)-3-methylphenyl)-12-fluoro-1,2,4a,5-tetrahydro-4H-[1,4]oxazino[4′,3′:4,5][1,4]oxazino[3,2-g]quinazolin-11-amine]
